Test results published in US20170114025A1, “METHODS FOR INHIBITING NECROPTOSIS” (Catalyst Therapeutics Pty Ltd, priority 2014, published 2017).
pIC50: −log10 of the molar value. Where two headings read alike, the source gives them in different places.

Assays:
[1] = tested on: U937 cells; test: Counter screen: cell viability without TSQ cocktail (off target effect); format: cell-based
Procedure: In parallel, all compounds are tested for their ability to affect cell viability. The same U937 cells are treated with compound in DMSO without the TSQ cocktail. This counter screen enables evaluation of off-target effects. In this case gain, cell viability is measured by flow cytometry after PI staining.

[2] = tested on: U937 human histiocytic leukemia cell line; test: Screening for inhibition of TSQ induced necroptosis, 96 well plate format; format: cell-based; settings: for IC50: U-937, U937, TSQ, 48 hours; for pIC50: U-937, 48 h
Procedure: Screening Compounds for Inhibition of TSQ Induced Necroptosis, 96 Well Plate Format.
U937 human histiocytic leukemia cell line.
35,000 per well in 120 μL of media, counted and plated immediately prior to addition of inhibitor and death stimuli. Final well volume of 150 μL after addition of compounds and death stimuli
HTRPMI (WEHI Media kitchen, contains L-Glutamine and penicillin, streptomycin)—supplemented with 7.4% v/v FCS (Gibco, Precision Plus. Lot #1221437)
48 hours following addition of compounds and death stimuli
DMSO Final Concentration (% v/v): 0.2%
Compounds that are in the Death Stimulation Cocktail and their Final Concentrations: • hTNF-Fc (100 ng/ml)—produced by Silke lab, WEHI • Compound A (500 nM)—Smac mimetic, Tetralogic • Q-VD-OPh (10 μM)—MP Biomedicals
Analysis: • Cells treated with PI staining (1 μg/ml) and analysed by flow cytometry
TNF; S: Smac mimetic; Q: Q-VD-OPh): TSQ treatment ensures that cells specifically undergo necroptotic cell death. TNF activates the TNF receptor, Smac mimetic direct the signal away from proinflammatory signaling and toward the RIP1/RIP3-mediated cell death pathways, and Q-VD-OPh ensures that the apoptotic response is blocked leaving only the programmed necrosis response. The compounds' activity (solution in DMSO) tested in this TSQ-induced assay is evaluated by measuring their ability to block cell death as measured by flow cytometry after PI staining.

[3] = U937 without TSQ cocktail, compound at 500 nM
[4] = U937 without TSQ cocktail, compound at 1 uM
[5] = U937 without TSQ cocktail, compound at 5 uM
[6] = U937 without TSQ cocktail, compound at 10 uM
[7] = average IC50, unit not given in Table 2 (titrations in nM), read-out: Cell based assay Average
[8] = unit not given in Table 2 (titrations given in nM), read-out: Cell based assay IC50
[9] = read-out: Cell based assay Average
[10] = read-out: Cell based assay IC50

Row | Compound | Off target effect (% cell death) at 500 nM [1, 3] | Off target effect (% cell death) at 1 uM [1, 4] | Off target effect (% cell death) at 5 uM [1, 5] | Off target effect (% cell death) at 10 uM [1, 6] | IC50 [2, 7] | IC50 [2, 8] | pIC50 [2, 9] | pIC50 [2, 10] | Off target effect (% cell death) at 500 nM ([1]; human, 500 nM) | Off target effect (% cell death) at 1 uM ([1]; human, 1 uM) | Off target effect (% cell death) at 5 uM ([1]; human, 5 uM) | Off target effect (% cell death) at 10 uM ([1]; human, 10 uM)
1 | Cc1ccc(Nc2nccc(N(C)c3ccc(NC(=O)Nc4ccc(OC(F)(F)F)cc4)cc3)n2)cc1C(=O)N(C)C [Compound 19, N,N,2-trimethyl-5-((4-(methyl(4-(3-(4-(trifluoromethoxy)phenyl)ureido)phenyl)amino)pyrimidin-2-yl)amino)benzamide] | 28% | 30% | 26% | 70% | 85.5 nM | 114 nM | – | – | – | – | – | –
2 | CN(c1cccc(NC(=O)Nc2ccc(OC(F)(F)F)cc2)c1)c1ccnc(Nc2cccc(S(N)(=O)=O)c2)n1 [Compound 14, 3-((4-(methyl(3-(3-(4-(trifluoromethoxy)phenyl)ureido)phenyl)amino)pyrimidin-2-yl)amino) benzenesulfonamide] | <20% | <20% | <20% | 70% | – | – | 6.47 | 6.35 | – | – | – | –
3 | CCN(c1ccc(NC(=O)Nc2ccc(OC(F)(F)F)cc2)cc1)c1ccnc(Nc2cccc(S(N)(=O)=O)c2)n1 [Compound 26, 3-((4-(ethyl(4-(3-(4-(trifluoromethoxy)phenyl)ureido)phenyl)-amino)pyrimidin-2-yl)amino)benzenesulfonamide] | <20% | <20% | 43% | 69% | – | – | 7.03 | 6.90 | – | – | – | –
4 | COCCNS(=O)(=O)c1cccc(Nc2nccc(N(C)c3ccc(NC(=O)Nc4ccc(OC(F)(F)F)cc4)cc3)n2)c1 [Compound 23, N-(2-Methoxyethyl)-3-(4-(methyl(4-(3-(4-(trifluoromethoxy)phenyl)-ureido)phenyl)amino)pyrimidin-2-ylamino)benzenesulfonamide] | 21% | 21% | 22% | 64% | 43.9 nM | 39 nM | – | – | – | – | – | –
5 | CN(c1ccc(NC(=O)Nc2ccc(OC(F)(F)F)cc2)cc1)c1ccnc(Nc2ccccc2S(N)(=O)=O)n1 [Compound 5, 2-(4-(Methyl(4-(3-(4-(trifluoromethoxy)phenyl)ureido)phenyl)amino)pyrimidin-2-ylamino)benzenesulfonamide] | – | – | – | – | > 10000 nM | ≥ 10000 nM | – | – | – | – | – | –
6 | NS(=O)(=O)c1cccc(Nc2nccc(Nc3ccc(NC(=O)Nc4ccc(OC(F)(F)F)cc4)cc3)n2)c1 [Compound 11, 3-((4-((4-(3-(4-(trifluoromethoxy)phenyl)ureido)phenyl)amino)pyrimidin-2-yl)amino)benzenesulfonamide] | <20% | <20% | <20% | 20% | 359 nM | 359 nM | – | – | – | – | – | –
7 | CN(C(=O)Nc1ccc(OC(F)(F)F)cc1)c1ccc(N(C)c2ccnc(Nc3cccc(S(N)(=O)=O)c3)n2)cc1 [Compound 12, 3-((4-(methyl(4-(1-methyl-3-(4-(trifluoromethoxy)phenyl)ureido)phenyl)amino)pyrimidin-2-yl)amino) benzene sulfonamide] | 36% | 41% | 36% | 56% | – | 327 nM | – | – | – | – | – | –
8 | CN(c1ccc(NC(=O)Nc2ccc(OC(F)(F)F)cc2)cc1)c1ccnc(Nc2cccc(CS(N)(=O)=O)c2)n1 [Compound 13, (3-((4-(Methyl(4-(3-(4-(trifluoromethoxy)phenyl)ureido)phenyl)amino)pyrimidin-2-yl)amino)phenyl)methanesulfonamide] | 24% | 20% | 14% | 84% | 149 nM | 167 nM | – | – | – | – | – | –
9 | CN(c1ccc(CC(=O)Nc2ccc(OC(F)(F)F)cc2)cc1)c1ccnc(Nc2cccc(S(N)(=O)=O)c2)n1 [Compound 17, 2-(4-(methyl(2-((3-sulfamoylphenyl)amino)pyrimidin-4-yl)amino)phenyl)-N-(4-(trifluoromethoxy)phenyl)acetamide] | 22% | 21% | <20% | 39% | 1050 nM | 979 nM | – | – | – | – | – | –
10 | CN(c1ccc(NC(=O)Nc2ccc(OC(F)(F)F)cc2)cc1)c1ccnc(Nc2cccc(C(N)=O)c2)n1 [Compound 8, 3-((4-(methyl(4-(3-(4-(trifluoromethoxy)phenyl)ureido)phenyl)amino)pyrimidin-2-yl)amino) benzamide] | – | – | – | – | 89.1 nM | 85.2 nM | – | – | – | – | – | –
11 | CN(c1ccc(NC(=O)Nc2ccc(OC(F)(F)F)cc2)cc1)c1ccnc(Nc2cccc(S(N)(=O)=O)c2)c1 [Compound 15, 3-((4-(methyl(4-(3-(4-(trifluoromethoxy)phenyl)ureido)phenyl)amino)pyridin-2-yl)amino) benzenesulfonamide] | <20% | <20% | <20% | 43% | 304 nM | 328 nM | – | – | – | – | – | –
12 | CN(c1ccc(NC(=O)Nc2ccc(OC(F)(F)F)cc2)cc1)c1ccnc(Nc2cccc(S(=O)(=O)N(C)C)c2)n1 [Compound 10, N,N-dimethyl-3-((4-(methyl(4-(3-(4-(trifluoromethoxy)phenyl)ureido)-phenyl)amino)pyrimidin-2-yl)amino)benzenesulfonamide] | <20% | <20% | 38% | 69% | 45.6 nM | 72.4 nM | – | – | – | – | – | –
13 | CN(c1ccc(NC(=O)Nc2ccc(OC(F)(F)F)cc2)cc1)c1ccnc(Nc2ccc(F)c(S(N)(=O)=O)c2)n1 [Compound 18, 2-Fluoro-5-((4-(methyl(4-(3-(4-(trifluoromethoxy)phenyl)ureido)phenyl)amino)pyrimidin-2-yl)amino)benzenesulfonamide] | 27% | 29% | 94% | 93% | 59.4 nM | 91.7 nM | – | – | – | – | – | –
14 | CN(c1ccc(NC(=O)Cc2ccc(OC(F)(F)F)cc2)cc1)c1ccnc(Nc2cccc(S(N)(=O)=O)c2)n1 [Compound 16, N-(4-(methyl(2-((3-sulfamoylphenyl)amino)pyrimidin-4-yl)amino)phenyl)-2-(4-(trifluoro-methoxy)phenyl)acetamide] | <20% | <20% | <20% | 30% | 87.3 nM | 97.5 nM | – | – | – | – | – | –
15 | CN(c1ccc(NC(=O)Nc2ccc(OC(F)(F)F)cc2)cc1)c1ccnc(Nc2cccc(S(C)(=O)=O)c2)n1 [Compound 25, 1-(4-(Methyl(2-((3-(methylsulfonyl)phenyl)amino)pyrimidin-4-yl)amino)phenyl)-3-(4-(trifluoromethoxy)phenyl)urea] | <20% | <20% | 43% | 86% | 32.9 nM | 21.7 nM | – | – | – | – | – | –
16 | Cc1cc(OC(F)(F)F)ccc1NC(=O)Nc1ccc(N(C)c2ccnc(Nc3cccc(S(N)(=O)=O)c3)n2)cc1 [Compound 20, 3-((4-(Methyl(4-(3-(2-methyl-4-(trifluoromethoxy)phenyl)ureido)phenyl)-amino)pyrimidin-2-yl)amino) benzenesulfonamide] | – | – | – | – | 109 nM | 143 nM | – | – | 24% | 29% | 33% | 80%
17 | CNS(=O)(=O)c1cccc(Nc2nccc(N(C)c3ccc(NC(=O)Nc4ccc(OC(F)(F)F)cc4)cc3)n2)c1 [Compound 9, N-methyl-3-((4-(methyl(4-(3-(4-(trifluoromethoxy)phenyl)ureido)-phenyl)amino)pyrimidin-2-yl)amino) benzenesulfonamide] | <20% | <20% | 43% | 88% | 42 nM | 73.1 nM | – | – | – | – | – | –
